From article PMC7508466 (Bioorganic & medicinal chemistry letters, 2020)
Entries after “also recorded” stand apart in the source; their conditions may differ.

What was measured:
human sst2 receptor = human sst2 receptor (Homo sapiens, UniProt P30874); test: cAMP functional assay in CHO-K1 cells stably expressing human sst2 receptor; assay type: cell-based; conditions: for sst2 pEC50±SEM: human sst2, CHO-K1 cells, cAMP, average of two or more independent measurements
CYP450 2C9 = CYP450 2C9 (Homo sapiens, UniProt P11712); test: in vitro screening CYP450 inhibition assay, 2C9; assay type: in vitro ADME; conditions: top concentration tested 10 μM
CYP450 2C9, sequence (P11712 whole entry): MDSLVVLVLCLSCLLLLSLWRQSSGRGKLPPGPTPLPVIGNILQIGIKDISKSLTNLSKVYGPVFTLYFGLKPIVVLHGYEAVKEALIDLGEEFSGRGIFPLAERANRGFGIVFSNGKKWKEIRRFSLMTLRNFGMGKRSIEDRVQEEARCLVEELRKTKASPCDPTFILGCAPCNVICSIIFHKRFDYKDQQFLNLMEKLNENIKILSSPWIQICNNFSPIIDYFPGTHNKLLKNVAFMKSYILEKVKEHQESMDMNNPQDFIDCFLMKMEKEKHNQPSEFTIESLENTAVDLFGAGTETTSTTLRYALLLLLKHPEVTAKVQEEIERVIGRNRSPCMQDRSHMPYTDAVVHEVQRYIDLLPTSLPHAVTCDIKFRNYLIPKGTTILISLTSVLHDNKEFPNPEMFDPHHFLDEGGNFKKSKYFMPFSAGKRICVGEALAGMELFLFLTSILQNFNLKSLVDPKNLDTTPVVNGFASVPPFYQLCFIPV

CYP450 2C19 = CYP450 2C19 (Homo sapiens, UniProt P33261); test: in vitro screening CYP450 inhibition assay, 2C19; assay type: in vitro ADME; conditions: top concentration tested 10 μM
CYP450 2C19, sequence (P33261 whole entry): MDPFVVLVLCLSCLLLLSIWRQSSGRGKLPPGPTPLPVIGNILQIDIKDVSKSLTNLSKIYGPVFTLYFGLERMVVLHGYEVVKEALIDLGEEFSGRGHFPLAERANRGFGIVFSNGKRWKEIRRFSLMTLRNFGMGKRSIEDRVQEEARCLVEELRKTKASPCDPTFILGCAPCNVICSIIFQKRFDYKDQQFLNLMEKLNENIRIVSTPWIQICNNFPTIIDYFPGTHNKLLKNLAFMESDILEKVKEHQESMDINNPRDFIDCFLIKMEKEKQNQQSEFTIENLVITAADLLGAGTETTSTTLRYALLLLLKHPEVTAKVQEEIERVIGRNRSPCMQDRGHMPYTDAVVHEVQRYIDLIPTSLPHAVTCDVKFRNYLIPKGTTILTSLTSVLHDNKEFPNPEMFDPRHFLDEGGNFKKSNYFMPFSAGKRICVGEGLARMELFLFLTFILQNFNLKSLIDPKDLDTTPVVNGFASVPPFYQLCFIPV

CYP450 3A4 = CYP450 3A4 (Homo sapiens, UniProt P08684); test: in vitro screening CYP450 inhibition assay, 3A4; assay type: in vitro ADME; conditions: top concentration tested 10 μM
CYP450 3A4, sequence (P08684 whole entry): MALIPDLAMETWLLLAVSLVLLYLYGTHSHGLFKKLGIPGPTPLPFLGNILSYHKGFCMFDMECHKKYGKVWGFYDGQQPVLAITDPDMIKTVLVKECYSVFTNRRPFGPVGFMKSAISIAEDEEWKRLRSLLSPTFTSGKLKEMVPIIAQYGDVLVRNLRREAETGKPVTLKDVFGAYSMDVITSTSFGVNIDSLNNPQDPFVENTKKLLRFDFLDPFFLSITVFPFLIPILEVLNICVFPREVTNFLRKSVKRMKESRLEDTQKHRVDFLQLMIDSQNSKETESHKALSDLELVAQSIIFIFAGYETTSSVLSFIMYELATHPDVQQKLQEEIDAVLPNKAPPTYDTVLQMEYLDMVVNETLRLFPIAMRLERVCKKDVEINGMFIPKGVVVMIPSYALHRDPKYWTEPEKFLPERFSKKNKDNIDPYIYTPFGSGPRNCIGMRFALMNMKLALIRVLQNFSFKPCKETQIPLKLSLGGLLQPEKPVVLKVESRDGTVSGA

[1] = oral administration to male SD rats; assay type: in vivo, rat
CYP450 2D6 = CYP450 2D6 (Homo sapiens, UniProt P10635); test: in vitro screening CYP450 inhibition assay, 2D6; assay type: in vitro ADME; conditions: top concentration tested 10 μM
CYP450 2D6, sequence (P10635 whole entry): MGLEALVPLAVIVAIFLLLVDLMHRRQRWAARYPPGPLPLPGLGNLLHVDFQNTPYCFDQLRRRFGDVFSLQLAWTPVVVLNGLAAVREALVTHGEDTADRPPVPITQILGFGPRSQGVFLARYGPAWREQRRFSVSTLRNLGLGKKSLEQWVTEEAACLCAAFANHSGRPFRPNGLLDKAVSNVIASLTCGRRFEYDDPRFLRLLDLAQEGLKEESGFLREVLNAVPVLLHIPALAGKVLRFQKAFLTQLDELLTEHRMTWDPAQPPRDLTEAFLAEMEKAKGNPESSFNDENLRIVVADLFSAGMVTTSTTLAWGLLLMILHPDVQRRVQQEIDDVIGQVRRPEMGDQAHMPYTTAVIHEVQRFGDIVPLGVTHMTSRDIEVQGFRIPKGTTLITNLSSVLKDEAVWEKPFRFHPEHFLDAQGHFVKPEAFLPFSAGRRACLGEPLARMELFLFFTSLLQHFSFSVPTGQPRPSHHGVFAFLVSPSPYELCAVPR

hERG channel = hERG channel (Homo sapiens, UniProt Q12809); test: hERG inhibition binding assay
hERG channel, sequence (Q12809 whole entry): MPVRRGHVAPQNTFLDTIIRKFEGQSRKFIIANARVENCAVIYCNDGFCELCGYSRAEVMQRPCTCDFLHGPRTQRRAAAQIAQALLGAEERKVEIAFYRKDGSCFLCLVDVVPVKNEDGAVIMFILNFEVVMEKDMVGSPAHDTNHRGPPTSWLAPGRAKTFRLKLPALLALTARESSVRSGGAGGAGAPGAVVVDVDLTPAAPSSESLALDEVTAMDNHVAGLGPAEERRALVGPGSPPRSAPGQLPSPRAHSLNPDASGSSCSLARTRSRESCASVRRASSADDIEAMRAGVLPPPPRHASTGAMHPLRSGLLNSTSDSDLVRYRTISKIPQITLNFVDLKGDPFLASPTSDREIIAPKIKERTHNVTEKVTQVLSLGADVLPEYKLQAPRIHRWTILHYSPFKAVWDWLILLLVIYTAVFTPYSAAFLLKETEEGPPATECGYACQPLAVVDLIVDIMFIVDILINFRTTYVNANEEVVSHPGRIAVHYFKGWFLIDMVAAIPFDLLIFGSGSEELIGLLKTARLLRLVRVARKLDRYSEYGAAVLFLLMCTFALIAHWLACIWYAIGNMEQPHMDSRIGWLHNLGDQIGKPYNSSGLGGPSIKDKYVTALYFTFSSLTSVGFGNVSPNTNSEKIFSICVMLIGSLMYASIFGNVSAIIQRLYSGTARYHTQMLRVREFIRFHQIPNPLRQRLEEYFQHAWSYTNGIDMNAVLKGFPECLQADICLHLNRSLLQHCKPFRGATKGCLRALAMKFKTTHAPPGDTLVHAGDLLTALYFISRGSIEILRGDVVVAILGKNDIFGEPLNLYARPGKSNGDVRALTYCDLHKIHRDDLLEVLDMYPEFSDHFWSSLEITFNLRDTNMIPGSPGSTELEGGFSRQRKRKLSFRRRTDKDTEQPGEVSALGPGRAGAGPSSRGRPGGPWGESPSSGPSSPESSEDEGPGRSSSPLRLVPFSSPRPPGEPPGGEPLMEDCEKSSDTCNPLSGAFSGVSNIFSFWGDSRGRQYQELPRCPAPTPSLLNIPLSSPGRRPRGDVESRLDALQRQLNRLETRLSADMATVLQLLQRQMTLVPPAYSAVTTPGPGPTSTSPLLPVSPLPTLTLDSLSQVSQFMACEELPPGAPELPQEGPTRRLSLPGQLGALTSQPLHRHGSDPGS

human sst2 receptor, sequence (P30874 whole entry): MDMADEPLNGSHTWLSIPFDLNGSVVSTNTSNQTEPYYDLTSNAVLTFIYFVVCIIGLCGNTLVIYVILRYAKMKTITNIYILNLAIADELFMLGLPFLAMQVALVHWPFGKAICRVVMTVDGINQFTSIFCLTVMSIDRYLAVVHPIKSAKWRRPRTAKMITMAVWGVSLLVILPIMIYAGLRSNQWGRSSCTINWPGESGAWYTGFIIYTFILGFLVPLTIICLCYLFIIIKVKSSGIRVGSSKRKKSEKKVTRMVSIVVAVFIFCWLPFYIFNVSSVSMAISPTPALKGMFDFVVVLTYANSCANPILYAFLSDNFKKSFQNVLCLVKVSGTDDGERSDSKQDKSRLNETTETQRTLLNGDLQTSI

Row | Structure (SMILES) | sst2 pEC50±SEM (human sst2 receptor) | other results
1 | Cc1cc(C)cc(N2C=Nc3cc(Cl)c(-c4cccc(O)c4)cc3C2C(=O)NC[C@H](C)N)c1 (some centres unmarked) [Compound 5] |  | sst2 agonist activity (in words) (human sst2 receptor; human sst2, cAMP): completely suppressed its ability to reduce cAMP production
2 | Cc1cc(Cl)cc(N2C=Nc3cc(C)c(-c4cnn(C)c4)cc3C2C(=O)N(C)C[C@@H]2CCCN2)c1 (some centres unmarked) [Compound 17] | 6.8 ± 0.1 | sst2 agonist activity (in words) (human sst2 receptor; human sst2, cAMP): substantially reduced potency
3 | CC[C@H](N)CN(C)C(=O)C1c2cc(-c3cccc(O)c3)c(C)cc2N=CN1c1cc(C)cc(C)c1 (some centres unmarked) [Compound 8] | 8.4 ± 0.2 | 
4 | Cc1cc(F)cc(N2C=Nc3cc(C)c(-c4cccc(O)c4)cc3C2C(=O)N(C)C[C@@H]2CCCN2)c1 (some centres unmarked) [Compound 11] | 9.0 ± 0.1 | 
5 | Cc1cc(Cl)cc(N2C=Nc3cc(C)c(-c4cccc(F)c4O)cc3C2C(=O)N(C)C[C@@H]2CCCN2)c1 (stereo partly drawn) [Compound 28, 3-(3-chloro-5-methylphenyl)-6-(3-fluoro-2-hydroxyphenyl)-N,7-dimethyl-N-{[(2S)-pyrrolidin-2-yl]methyl}-3,4-dihydroquinazoline-4-carboxamide] |  | CYP 2C9 inhibition (in words) (CYP450 2C9): little inhibition; also recorded: no inhibition; CYP 2C19 inhibition (in words) (CYP450 2C19): little inhibition; also recorded: no inhibition; CYP 3A4 inhibition (in words) (CYP450 3A4): little inhibition; also recorded: no inhibition; oral exposure (in words) [1]: limited oral exposure; CYP 2D6 inhibition (in words) (CYP450 2D6): little inhibition; also recorded: no inhibition; hERG inhibition (in words) (hERG channel): moderate inhibitors; also recorded: weak inhibition
6 | Cc1cc(Cl)cc(N2C=Nc3cc(C)c(-c4cccc(O)c4)cc3C2C(=O)N(C)C[C@@H]2CCCN2)c1 (some centres unmarked) [Compound 10] | 9.5 ± 0.2 | 
7 | Cc1cc(Cl)cc(N2C=Nc3cc(C)c(-c4cc(F)ccc4O)cc3C2C(=O)N(C)C[C@@H]2CCCN2)c1 (some centres unmarked) [Compound 29] | 8.7 ± 0.0 | 
8 | COc1cc(F)cc(-c2cc3c(cc2C)N=CN(c2cc(C)cc(Cl)c2)C3C(=O)N(C)C[C@@H]2CCCN2)c1 (some centres unmarked) [Compound 20] | 8.2 ± 0.1 | 
9 | Cc1cc(Cl)cc(N2C=Nc3cc(C)c(-c4ccc5[nH]c(=O)[nH]c5c4)cc3C2C(=O)N(C)C[C@@H]2CCCN2)c1 (some centres unmarked) [Compound 24] | 8.3 ± 0.2 | 
10 | Cc1cc(Cl)cc(N2C=Nc3cc(C)c(-c4cccc(C#N)c4)cc3C2C(=O)N(C)C[C@@H]2CCCN2)c1 (some centres unmarked) [Compound 13] | 8.3 ± 0.1 | 
11 | Cc1cc(Cl)cc(N2C=Nc3cc(C)c(-c4cccc(C(F)(F)F)c4)cc3C2C(=O)N(C)C[C@@H]2CCCN2)c1 (some centres unmarked) [Compound 15] | 7.3 ± 0.0 | 
12 | Cc1cc(Cl)cc(N2C=Nc3cc(C)c(-c4cncc(O)c4)cc3C2C(=O)N(C)C[C@@H]2CCCN2)c1 (some centres unmarked) [Compound 25] | 8.1 ± 0.1 | 
13 | Cc1cc(Cl)cc(N2C=Nc3cc(C)c(-c4ccccc4)cc3C2C(=O)N(C)C[C@@H]2CCCN2)c1 (some centres unmarked) [Compound 12] | 7.3 ± 0.0 | sst2 agonist activity (in words) (human sst2 receptor; human sst2, cAMP): significantly diminished sst2 agonist activity
14 | Cc1cc(Cl)cc(N2C=Nc3cc(C)c(-c4cc(F)cc(F)c4)cc3C2C(=O)N(C)C[C@@H]2CCCN2)c1 (some centres unmarked) [Compound 19] | 8.4 ± 0.0 | 
15 | Cc1cc(Cl)cc(N2C=Nc3cc(C)c(-c4cc(O)cc(C#N)c4)cc3C2C(=O)N(C)C[C@@H]2CCCN2)c1 (some centres unmarked) [Compound 30] | 9.4 ± 0.1 | sst2 agonist activity (in words) (human sst2 receptor; human sst2, cAMP): tolerable
16 | Cc1cc(C)cc(N2C=Nc3cc(C)c(-c4cccc(O)c4)cc3C2C(=O)N(C)C[C@@H]2CCCN2)c1 (some centres unmarked) [Compound 9] | 8.9 ± 0.1 | 
17 | Cc1cc(Cl)cc(N2C=Nc3cc(C)c(-c4cccc(NS(C)(=O)=O)c4)cc3C2C(=O)N(C)C[C@@H]2CCCN2)c1 (some centres unmarked) [Compound 23] | 6.9 ± 0.1 | 
18 | Cc1cc(Cl)cc(N2C=Nc3cc(C)c(-c4cccc(Cl)c4)cc3C2C(=O)N(C)C[C@@H]2CCCN2)c1 (some centres unmarked) [Compound 16] | 7.4 ± 0.0 | 
19 | CC[C@H](N)CN(C)C(=O)C1c2cc(-c3cccc(O)c3)c(Cl)cc2N=CN1c1cc(C)cc(C)c1 (some centres unmarked) [Compound 7] | 8.0 ± 0.1 | enhancement of sst2 potency relative to compound 4 (human sst2 receptor; human sst2, cAMP): about 3 fold
20 | Cc1cc(C)cc(N2C=Nc3ccc(-c4cccc(O)c4)cc3C2C(=O)N(C)C[C@H](C)N)c1 (some centres unmarked) [Compound 6] |  | decrease of sst2 agonist activity relative to compound 4 (human sst2 receptor; human sst2, cAMP): more than 10 fold
21 | Cc1cc(Cl)cc(N2C=Nc3cc(C)c(-c4cc(F)cc(C(N)=O)c4)cc3C2C(=O)N(C)C[C@@H]2CCCN2)c1 (some centres unmarked) [Compound 31] |  | hERG inhibition (in words) (hERG channel): moderate inhibitors; sst2 agonist activity (in words) (human sst2 receptor; human sst2, cAMP): as potent as compound 26
22 | Cc1cc(Cl)cc(N2C=Nc3cc(C)c(-c4cncc(C#N)c4)cc3C2C(=O)N(C)C[C@@H]2CCCN2)c1 (some centres unmarked) [Compound 14] | 7.9 ± 0.4 | 
